target: T1, ChTS (Cryptosporidium parvum, UniProt Q27552); format: biochemical; details: ChTS IC50 compared to compound 2
T1 sequence (Q27552 1-521): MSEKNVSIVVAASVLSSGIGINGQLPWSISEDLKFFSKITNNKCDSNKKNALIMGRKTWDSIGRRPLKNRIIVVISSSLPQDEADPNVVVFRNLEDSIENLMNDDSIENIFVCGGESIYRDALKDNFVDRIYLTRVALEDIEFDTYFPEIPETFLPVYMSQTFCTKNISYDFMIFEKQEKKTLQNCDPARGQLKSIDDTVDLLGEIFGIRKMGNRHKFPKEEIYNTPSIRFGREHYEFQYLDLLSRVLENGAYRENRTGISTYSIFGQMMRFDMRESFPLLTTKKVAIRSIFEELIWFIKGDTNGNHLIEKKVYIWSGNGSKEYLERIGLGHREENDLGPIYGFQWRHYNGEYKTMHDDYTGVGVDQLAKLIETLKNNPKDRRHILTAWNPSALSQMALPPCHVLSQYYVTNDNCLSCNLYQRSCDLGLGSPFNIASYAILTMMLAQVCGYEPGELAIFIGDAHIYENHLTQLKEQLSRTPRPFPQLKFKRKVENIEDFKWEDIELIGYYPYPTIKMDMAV

Row | Compound | loss (decrease) of potency | increase (enhancement) in potency [fold]
1 | COCc1ccc(C(=O)O)c(NC(=O)c2ccc(Cc3c[nH]c4nc(N)[nH]c(=O)c34)cc2)c1 [Compound 19, 2-(4-((2-amino-4-oxo-4,7-dihydro-3H-pyrrolo[2,3-d]pyrimidin-5-yl)methyl)benzamido)-4-(methoxymethyl)benzoic acid] | ~ 3.5 fold | 
2 | Nc1nc2[nH]cc(Cc3ccc(C(=O)NC4CCCCC4C(=O)O)cc3)c2c(=O)[nH]1 (stereo not shown) [Compound 13, 2-(4-((2-amino-4-oxo-4,7-dihydro-3H-pyrrolo[2,3-d]pyrimidin-5-yl)methyl)benzamido)cyclohexan-1-carboxylic acid] | 3 fold | 
3 | COCCOc1cc(OC)cc(-c2ccc(Cc3c[nH]c4nc(N)[nH]c(=O)c34)cc2)c1 [Compound 26, 2-amino-5-((3’-methoxy-5’-(2-methoxyethoxy)-[1,1’-biphenyl]-4-yl)methyl)-3,7-dihydro-4H-pyrrolo [2,3-d]pyrimidin-4-one] | ~ 5 fold | 
4 | Nc1nc2[nH]cc(Cc3ccc(C(=O)Nc4cc(CO)ccc4C(=O)O)cc3)c2c(=O)[nH]1 [Compound 18, 2-(4-((2-amino-4-oxo-4,7-dihydro-3H-pyrrolo[2,3-d]pyrimidin-5-yl)methyl)benzamido)-4-(hydroxymethyl)benzoic acid] | ~ 9 fold | 
5 | Nc1nc2[nH]cc(Cc3ccc(C(=O)Nc4ccccc4CCC(=O)O)cc3)c2c(=O)[nH]1 [Compound 6, 3-(2-(4-((2-amino-4-oxo-4,7-dihydro-3H-pyrrolo[2,3-d]pyrimidin-5-yl)methyl)benzamido)phenyl) propanoic acid] | ~ 6 fold | 
6 | COCc1cccc(C(=O)O)c1NC(=O)c1ccc(Cc2c[nH]c3nc(N)[nH]c(=O)c23)cc1 [Compound 21, 2-(4-((2-amino-4-oxo-4,7-dihydro-3H-pyrrolo[2,3-d]pyrimidin-5-yl)methyl)benzamido)-3-(methoxymethyl)benzoic acid] | greater than 5 fold | 
7 | Nc1nc2[nH]cc(Cc3ccc(C(=O)NCc4ccccc4C(=O)O)cc3)c2c(=O)[nH]1 [Compound 11, 2-((4-((2-amino-4-oxo-4,7-dihydro-3H-pyrrolo[2,3-d]pyrimidin-5-yl)methyl)benzamido)methyl) benzoic acid] | 6 fold | 
8 | N#Cc1ccc(C(=O)O)c(NC(=O)c2ccc(Cc3c[nH]c4nc(N)[nH]c(=O)c34)cc2)c1 [Compound 17, 2-(4-((2-amino-4-oxo-4,7-dihydro-3H-pyrrolo[2,3-d]pyrimidin-5-yl)methyl)benzamido)-4-cyanobenzoic acid] |  | 2
9 | Nc1nc2[nH]cc(Cc3ccc(C(=O)N4CCCCC4C(=O)O)cc3)c2c(=O)[nH]1 (stereo not shown) [Compound 12, 1-(4-((2-amino-4-oxo-4,7-dihydro-3H-pyrrolo[2,3-d]pyrimidin-5-yl)methyl)benzoyl) piperidine-2-carboxylic acid] | greater than 25 fold | 
10 | Nc1nc2[nH]cc(Cc3ccc(/C=C/c4ccccc4C(=O)O)cc3)c2c(=O)[nH]1 [Compound 10, (E)-2-(4-((2-amino-4-oxo-4,7-dihydro-3H-pyrrolo[2,3-d]pyrimidin-5-yl)methyl)styryl)benzoic acid] | greater than 5 fold | 
11 | Nc1nc2[nH]cc(Cc3ccc(C(=O)Nc4ccc(C(=O)O)cc4)cc3)c2c(=O)[nH]1 [Compound 4, 4-(4-((2-amino-4-oxo-4,7-dihydro-3H-pyrrolo[2,3-d]pyrimidin-5-yl)methyl)benzamido)benzoic acid] | ~ 5 fold | 
12 | Nc1nc2[nH]cc(Cc3ccc(C(=O)Nc4cccc(C(=O)O)c4)cc3)c2c(=O)[nH]1 [Compound 3, 3-(4-((2-amino-4-oxo-4,7-dihydro-3H-pyrrolo[2,3-d]pyrimidin-5-yl)methyl)benzamido)benzoic acid] | ~ 5 fold | 
13 | CN(C(=O)c1ccc(Cc2c[nH]c3nc(N)[nH]c(=O)c23)cc1)c1ccccc1C(=O)O [Compound 9, 2-(4-((2-amino-4-oxo-4,7-dihydro-3H-pyrrolo[2,3-d]pyrimidin-5-yl)methyl)-N-methylbenzamido) benzoic acid] | ~ 11 fold | 
14 | COc1cc(C(=O)O)cc(-c2ccc(Cc3c[nH]c4nc(N)[nH]c(=O)c34)cc2)c1 [Compound 27, 4’-((2-amino-4-oxo-4,7-dihydro-3H-pyrrolo[2,3-d]pyrimidin-5-yl)methyl)-5-methoxy-[1,1’-biphenyl]-3-carboxylic acid] | greater than 25 fold | 
15 | COc1ccc(C(=O)O)c(NC(=O)c2ccc(Cc3c[nH]c4nc(N)[nH]c(=O)c34)cc2)c1 [Compound 16, 2-(4-((2-amino-4-oxo-4,7-dihydro-3H-pyrrolo[2,3-d]pyrimidin-5-yl)methyl)benzamido)-4-methoxy benzoic acid] | ~ 2.5 fold | 
16 | COc1ccc(NC(=O)c2ccc(Cc3c[nH]c4nc(N)[nH]c(=O)c34)cc2)c(C(=O)O)c1 [Compound 22, 2-(4-((2-amino-4-oxo-4,7-dihydro-3H-pyrrolo[2,3-d]pyrimidin-5-yl)methyl)benzamido)-5-methoxybenzoic acid] | greater than 5 fold | 

same assay, conditions: compared to compound 2

Row | Compound | change in ChTS potency (in words)
17 | Nc1nc2[nH]cc(Cc3ccc(C(=O)Nc4cc(Cl)ccc4C(=O)O)cc3)c2c(=O)[nH]1 [Compound 14, 2-(4-((2-amino-4-oxo-4,7-dihydro-3H-pyrrolo[2,3-d]pyrimidin-5-yl)methyl)benzamido)-4-chloro benzoic acid] | small loss of potency
18 | Nc1nc2[nH]cc(Cc3ccc(C(=O)Nc4ccccc4CC(=O)O)cc3)c2c(=O)[nH]1 [Compound 5, 2-(2-(4-((2-amino-4-oxo-4,7-dihydro-3H-pyrrolo[2,3-d]pyrimidin-5-yl)methyl)benzamido)phenyl) acetic acid] | small increase in potency

tested on: ChTS over the hTS enzyme; details: inhibition activity; cited from earlier work

Row | Compound | selectivity for the ChTS over the hTS enzyme [fold]
19 | 2-amino-4-oxo-4,7-dihydro-pyrrolo[2,3-d]pyrimidin-methyl-phenyl-L-glutamic acid [Compound 1] | 6
